US20210355066A1 (CymaBay Therapeutics, Inc., priority 2020, published 2021)

Experiments:
[1] = crystalline form
Source text: A weighed aluminum pan configured as the sample pan was placed on the […] side of the cell.

CYP 2C9 = CYP 2C9 (Homo sapiens, UniProt P11712); conditions: tolbutamide hydroxylation assay; relative to (S)-enantiomer; cited from earlier work
Sequence of CYP 2C9 (P11712 whole entry, species assumed): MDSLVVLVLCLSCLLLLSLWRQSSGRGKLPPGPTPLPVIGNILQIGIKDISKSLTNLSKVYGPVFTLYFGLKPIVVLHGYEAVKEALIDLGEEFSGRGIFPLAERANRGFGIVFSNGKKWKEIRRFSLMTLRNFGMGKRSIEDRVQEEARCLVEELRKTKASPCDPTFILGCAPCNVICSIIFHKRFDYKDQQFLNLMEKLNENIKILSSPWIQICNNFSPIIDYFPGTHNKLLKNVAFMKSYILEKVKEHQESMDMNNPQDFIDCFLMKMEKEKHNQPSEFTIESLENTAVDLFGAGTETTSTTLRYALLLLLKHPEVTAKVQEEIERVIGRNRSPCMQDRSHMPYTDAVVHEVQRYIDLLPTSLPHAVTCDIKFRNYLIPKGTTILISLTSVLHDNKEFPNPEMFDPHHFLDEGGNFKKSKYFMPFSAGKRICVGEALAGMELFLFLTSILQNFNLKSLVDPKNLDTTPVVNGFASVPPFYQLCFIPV

Row | Compound | stability to thermal stress [1] | fold less active as an inhibitor of CYP 2C9 than its (S)-enantiomer (CYP 2C9)
1 | 2-hydroxy-N,N,N-trimethylethan-1-aminium (2R)-2-(4-chlorophenyl)-2-[3-(trifluoromethyl)phenoxy]acetate [CB-0406 choline salt] | good stability to thermal stress | –
2 | O=C(O)[C@H](Oc1cccc(C(F)(F)F)c1)c1ccc(Cl)cc1 [CB-0406, (2R)-2-(4-chlorophenyl)-2-[3-(trifluoromethyl)phenoxy]acetic acid] | – | approximately 20 fold
